Assay [1] addresses hCB2 receptor (Homo sapiens, UniProt P34972). Description: Agonism of CB2 by detection of cAMP using HTRF. Type of assay: cell-based. The conditions noted are these: CHO cells stably expressing CB2 receptor; for pEC50: cAMP HTRF, forskolin-stimulated, average if tested more than once, read-out: hCB2 CHO EC50; for Emax: normalized to DMSO and maximal activation (5 nM CP55940). Here is the method: (§1) Method for Assaying Agonism of CB1 or CB2 by Detection of cAMP Using Homogeneous Time-Resolved Fluorescence (HTRF®)
(§2) CHOP-K1 cells stably expressing the CB1 receptor (PerkinElmer, ES-110-C) or the CB2 receptor (PerkinElmer, ES-111-CF) were seeded into 384 well white TC-treated plates (Greiner 781080) at 7000 cells per well in Ham's media (Gibco #31765-035) supplemented with 10% FBS (Gibco #16000-044) and 500 μg/mL Geneticin (Gibco #10131-027) and cultured overnight. The next day, plates were washed one time in assay buffer (HBSS with Ca^2+ and Mg^2+ (Corning #21-023-CV)+20 mM HEPES (Corning #25-060-Cl) and 0.01% BSA (Sigma A2153)). In a separate compound plate (Greiner 781201-906), 50 nL of test compound or DMSO was transferred using the Echo 550 (Labcyte), then 40 μL/well of assay buffer with 0.5 mM IBMX, 2 μM Forskolin (Sigma F3917), and 0.01% BSA was added. For the CB1 assay, assay buffer was dumped from the cell plate and fresh assay buffer containing 0.5 mM IBMX (Sigma I5679) was added at 30 μL/well, and the plate was incubated for 1 hr at 37° C., 5% CO2. Following the IBMX pre-treatment step, buffer was dumped from the cell plate, and 20 μL/well of the assay buffer with test compound was transferred into the cell plate with a subsequent incubation of 20 min at room temperature. Reagents for cAMP detection (cisbio 62AM4PEJ) were prepared and subsequently transferred to the cell plate at 20 μL/well. Following a 1 hr incubation at room temperature, the plate was read on the Pherastar FX (BMG, excitation 320 nm, detection at 620 nm (donor) and 665 nm (acceptor)). The ratio of signal at 665 nm/620 nm was determined for each well in the plate. For each assay day, a cAMP standard curve was run in parallel to assess the range of response and determine the concentration of cAMP in each well. Control wells (n=16 of each) with no activation of CB1 receptor (DMSO) and maximal activation (5 nM CP55940, Sigma) were used to normalize the data and to determine signal-to-background ratio and Z′. For the CB2 assay, conditions were as described above for the CB1 assay, except that the IBMX preincubation step was not used and that the 20 min compound incubation step occurred in the incubator at 37° C., 5% CO2.
(§3) EC50 values were calculated from dose response curves by nonlinear regression analysis using PRISM software.
(§4) Representative compounds of the present invention were tested according to the procedures described in Biological Example 1 above, with results as listed in Table 3, below. If a compound was tested more than once (due to multiple samples or batches), then the value listed in Table 3 below represents the average of the measured values.

For assay [2], the target named is hCB1 receptor (Homo sapiens, UniProt P21554). Description: Agonism of CB1 by detection of cAMP using HTRF. It counts as cell-based. The conditions noted are these: CHO cells stably expressing CB1 receptor; for pEC50: cAMP HTRF, forskolin-stimulated, average if tested more than once, read-out: hCB1 CHO EC50; for Emax: normalized to DMSO and maximal activation (5 nM CP55940). Here is the method:
as §1, §2, §3, §4
(Time-resolved FRET reads energy transfer from a long-lived donor to a nearby acceptor.)

SMILES strings stand for the structures. pEC50: −log10 of the molar value.

This note sets out measurements from patent US20240109910A1, “HEXAHYDRO-5,8-EPOXYCYCLOHEPTA[c]PYRAZOLE DERIVATIVES USEFUL AS MODULATORS OF THE CB1 AND / OR CB2 RECEPTORS” (JANSSEN PHARMACEUTICA NV, priority 2019, published 2024).

Sequence of hCB1 receptor (P21554 whole entry): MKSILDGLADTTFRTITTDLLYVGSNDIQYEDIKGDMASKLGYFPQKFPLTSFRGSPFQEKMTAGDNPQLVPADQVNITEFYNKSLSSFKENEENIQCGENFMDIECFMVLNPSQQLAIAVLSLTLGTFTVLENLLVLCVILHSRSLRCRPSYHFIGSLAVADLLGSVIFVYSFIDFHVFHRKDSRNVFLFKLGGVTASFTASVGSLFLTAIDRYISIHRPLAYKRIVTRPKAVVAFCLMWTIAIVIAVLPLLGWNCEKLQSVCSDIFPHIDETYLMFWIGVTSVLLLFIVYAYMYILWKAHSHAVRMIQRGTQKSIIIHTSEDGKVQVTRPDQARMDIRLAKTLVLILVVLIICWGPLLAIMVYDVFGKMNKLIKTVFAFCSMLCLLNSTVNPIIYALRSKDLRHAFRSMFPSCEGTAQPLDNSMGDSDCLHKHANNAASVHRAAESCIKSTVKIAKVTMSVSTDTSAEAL
Sequence of hCB2 receptor (P34972 whole entry): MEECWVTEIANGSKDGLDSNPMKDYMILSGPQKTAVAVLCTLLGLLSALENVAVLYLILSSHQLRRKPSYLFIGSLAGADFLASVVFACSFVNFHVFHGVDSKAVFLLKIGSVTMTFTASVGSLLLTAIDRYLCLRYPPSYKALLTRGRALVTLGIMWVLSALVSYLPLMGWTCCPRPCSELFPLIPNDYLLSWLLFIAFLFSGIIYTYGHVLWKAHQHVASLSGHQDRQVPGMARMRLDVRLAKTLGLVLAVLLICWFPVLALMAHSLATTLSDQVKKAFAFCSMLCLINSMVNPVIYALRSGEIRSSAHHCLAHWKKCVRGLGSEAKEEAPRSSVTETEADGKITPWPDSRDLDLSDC

Broadly, the pEC50 is −log10 of the EC50, conventionally taken in molar units. In general, Emax refers to the maximal effect, on the per cent scale that the assay sets. For `O=C(NC12CCC(CC1)CC2)c1nn(-c2c[n+]([O-])ccn2)c2c1CC1CCC2O1` (centres unmarked) [Compound 22, 3-(3-(bicyclo[2.2.2]octan-1-ylcarbamoyl)-5,6,7,8-tetrahydro-5,8-epoxycyclohepta[c]pyrazol-1(4H)-yl)pyrazine 1-oxide], in assay [1], the pEC50 is 10.70 and the Emax was found to be 99.7%. In assay [2], the pEC50 is 7.31 and the Emax was determined as 96.5%.

As to `O=C(NC12CC3CC(CC1C3)C2)c1nn(-c2ccc(F)cc2F)c2c1CC1CCC2O1` [Compound 41, 1-(2,4-difluorophenyl)-N-((2R,3as,5S,6as)-hexahydro-2,5-methanopentalen-3a(1H)-yl)-1,4,5,6,7,8-hexahydro-5,8-epoxycyclohepta[c]pyrazole-3-carboxamide], in assay [1], the pEC50 is 10.10 and the Emax stood at 99.1%. In assay [2], the pEC50 was 9.15 and the Emax came to 98%.
